Test results as given in US11622991B2, “Protocol for treatment of lupus nephritis” (Aurinia Pharmaceuticals Inc., priority 2017, dated 2023).
Read-outs that look alike come from different tables or passages of the source.

What was measured:
[1] = tested on: lupus nephritis; experiment: 48 week study of LN treatment: complete and partial remission; type: in vivo, human; conditions: for patients showing complete remission (CR) / patients showing partial remission (PR): 24 weeks
Procedure: The study was conducted over a period of 48 weeks and safety was evaluated at 24 weeks.
Subjects were screened prior to admission to the study by (a) determining that the urine protein creatinine ratio (UPCR) as >1.5 mg/mg as measured by first morning void, and (b) that the eGFR as measured by Chronic Kidney Disease Epidemiology Collaboration equation (CKD-EP1) of >45 ml/min/1.73 m^2. Subjects were assessed after 24 weeks and 48 weeks as well as a subsequent evaluation at 50 weeks.
PR is a composite end-point that includes safety and efficacy: UPCR reduction of 50% from baseline and no use of rescue medication

[2] = tested on: lupus nephritis; experiment: Predictability of week 48 partial remission from early C3 normalization (Table 10); type: in vivo, human
Description: PR is defined as at least 50% reduction in proteinuria (i.e. UPCR).
Sensitivity is defined as the probability that a subject showing PR at 48 weeks would have shown a favorable result with regard to the marker at the designated early time point. In the tables below, this is the ratio of the number of subjects with favorable marker results (early drop or normalization) to the total subjects with 48 week PR.
Specificity is defined as the probability that a subject not showing PR at 48 weeks would have shown an unfavorable result with regard to the marker at the designated early time point. In the tables below, this is the ratio of the number of subjects with unfavorable marker results (no early drop or no normalization) to the total subjects with no 48 week PR.
Positive predictive value is defined as the probability that a subject showing a favorable result with respect to the marker at an earlier time point would show PR at 48 weeks. In the tables below, this is the ratio of the number of subjects with favorable marker results who have 48 week PR to those with favorable marker results (early reduction or yes column).
Negative predictive value is defined as the probability that a subject showing an unfavorable result with respect to the marker at an earlier time point would not show PR at 48 weeks. In the tables below, this is the ratio of the number of subjects with unfavorable marker results who have no PR at 48 weeks to the total subjects with unfavorable marker results (no early reduction or no column).
Another criterion for effectiveness is normalization of C3 and/or C4 concentration in blood. The normal concentration of C3 is 90 mg/dl or greater and for C4 16 mg/dl or greater.

[3] = tested on: lupus nephritis; conditions: cited from earlier work
[4] = high dosage 39.5 mg BID with MMF and corticosteroids
[5] = low dosage 23.7 mg BID with MMF and corticosteroids

C=C/C=C/C[C@@H](C)[C@@H](O)[C@H]1C(=O)N[C@@H](CC)C(=O)N(C)CC(=O)N(C)[C@@H](CC(C)C)C(=O)N[C@@H](C(C)C)C(=O)N(C)[C@@H](CC(C)C)C(=O)N[C@@H](C)C(=O)N[C@H](C)C(=O)N(C)[C@@H](CC(C)C)C(=O)N(C)[C@@H](CC(C)C)C(=O)N(C)[C@@H](C(C)C)C(=O)N1C [voclosporin]
patients showing complete remission (CR) [1, 4]: 27% | patients showing partial remission (PR) [1, 4]: 66% | patients showing complete remission (CR) [1, 5]: 32.6% | patients showing partial remission (PR) [1, 5]: 70% | subjects showing complete remission (CR) ([1]; 48 weeks, low dosage 23.7 mg BID with MMF and corticosteroids): 49% | No Week 48 Partial Remission No Normalization ([2]; week 12, 23.7 mg BID): 10 | No Week 48 Partial Remission Normalization ([2]; week 12, 23.7 mg BID): 8 | Normalization Yes ([2]; week 12, 23.7 mg BID): 31 | No Week 48 Partial Remission No Normalization ([2]; week 12, 39.5 mg BID): 10 | No Week 48 Partial Remission Normalization ([2]; week 12, 39.5 mg BID): 7 | No Week 48 Partial Remission No Normalization ([2]; week 24, 23.7 mg BID): 8 | Normalization Yes ([2]; week 24, 23.7 mg BID): 30 | Week 48 Partial Remission No Normalization ([2]; week 24, 23.7 mg BID): 33 | No Week 48 Partial Remission No Normalization ([2]; week 48, 23.7 mg BID): 8 | No Week 48 Partial Remission Normalization ([2]; week 48, 23.7 mg BID): 2 | Normalization Yes ([2]; week 48, 23.7 mg BID): 27 | No Week 48 Partial Remission No Normalization ([2]; week 48, 39.5 mg BID): 9 | No Week 48 Partial Remission Normalization ([2]; week 48, 39.5 mg BID): 7 | remission ([3]; 23.7 mg or 39.5 mg twice daily with MMF and reducing corticosteroid, 24 weeks and 48 weeks): successful complete or partial remission in a large number of patients | remission ([3]; 23.7 mg twice daily with MMF and reducing corticosteroid dose, 24 weeks): complete remission or partial remission in a large percentage of subjects
